“And” between values parts separate entries of the source, which are not always exact repeats. Equal values may be shown once. Read-outs that look alike come from different tables or passages of the source.
Key:
DAT in the striatum [1] = target: T1, DAT in the striatum (Homo sapiens, UniProt Q01959); assay: SPECT imaging of radiotracer binding to DAT after i.v. injection; type: in vivo; design: from tissue; host or cells: striatum of living patients (in vivo SPECT)
Description: More recently, the SN to striatum pathway of a live patient has become assessible by viewing images of the striatum obtained by various noninvasive imaging techniques. Such non-invasive methods use single photon emission computed tomography (SPECT) assessment measuring the uptake/binding of a radiolabeled imagining agent that binds to dopamine transporters (DAT) in the striatum. Currently, the only SPECT radiopharmaceutical approved for use in the United States, the European Union, and Canada is DaTSCAN® (N-ω-fluoropropyl-2β-carbomethoxy-3β-(4-iodophenyl) nortropane), which is radiolabeled with ^123I. After injection of DaTSCAN, the patient must wait 3 hr for its uptake into systemic circulation, and transition through the blood brain barrier into the parenchyma of the brain tissue until it reaches stable binding to DAT. At that point, radioactivity (counts) can be collected and quantified, and a visual image can be acquired via SPECT. The visual image is compiled for reading by experts who then determine if there is evidence of DAT density loss in the striatum. In the case of a patient with Parkinson's disease, an asymmetrical pattern of binding in the striatum is observed in the image, whereas in the non-parkinsonian tremor patient, the pattern is visible as bilateral and symmetrical (i.e., “normal) (Lewis et al. (2012) Practitioner 1748: 21-24). This information is used by treating physicians in determining diagnosis and subsequent treatment.
SPECT and PET are procedures in which the isotope bound to DaT2020 or derivatives thereof is measured once the agent has been administered and has reached stable binding in the ROI. Once entering the blood stream, it travels throughout the body (e.g., brain, liver, kidney, heart, lungs, and the peripheral vascular system) and binds to DAT in various regions of the body including the striatum. The time it takes to reach stable binding (to eliminate background noise to form a clearer image) depends on the ROI and the depth of the tissue penetrated by the agent.
In SPECT, the single emitted photon passes into the camera and strikes a scintillation crystal which, in turn, is viewed by a large number of photomultiplier tubes. The output voltages generated by the photomultiplier tubes are fed to a position circuit which produces four output signals. These signals contain information about the position and intensity of where the photon struck the crystal (scintillations). These signals (which “unblank” or “light up” the receiver, e.g., a cathode ray oscilloscope) for each photon are then fed into the memory circuitry of a computer and stored. […] Therefore, one can obtain counts and process them for quantitation at any single moment or over varying periods of time during a single scan session. In order to construct an image, a scan session must collect millions of counts over time in order to produce enough detail for a human reader to evaluate. […]
SPECT acquisition is performed on a SPECT/CT or stand-alone SPECT with at least two imaging heads fitted with collimators (parallel-beam and fan beam collimators with manufacturer specified (or measured according to NEMA standards) planar system resolution of <8 mm FWHM (in ‘air’ at 10 cm distance). Raw projection data (or counts) are acquired as described in Djang et al. (2013) Nuclear Med. Mol. Imaging 47(2):73-80), step-and-shoot mode with angle increments of 3° can be used. […]

[2] = sponsored clinical trials: safety and radiation dose of bolus injection; type: in vivo, human
Procedure: Such buffers include, but are not limited to, ethanol (solvent), sodium hydroxide and acetic acid (pH adjustment), sodium chloride injection (isotonic vehicle). The formulation to be administered as a bolus injection has been shown in sponsored clinical trials to be safe containing a dose of up to about 8 mCi to 10 mCi of radiolabeled DaT2020 and delivered in a total volume of about 2.5 mL to about 5 mL.
The radioactivity of the dose of radiolabeled DaT2020 or of its radiolabeled derivatives, can be determined by one with skill in the art, e.g. by a nuclear medicine imaging technician. In addition, the total radioactivity of the actual administered dose is of relevance and not the volume administered to achieve this dose. The exact radioactive dose of the tracer administered is determined by calculating the difference between the radioactivity in the syringe and delivery system before and after injection. After the dose is delivered, the syringe is filled with a volume of saline equal to the administered dose volume. The syringe content is recounted under the same conditions as used to determine the dose; separately. […]

DAT in the striatum [3] = target: T1, DAT in the striatum; settings: cited from earlier work; for time after injection until binding to striatal DAT becomes stable: post-injection, before SPECT imaging
DAT = DAT (Homo sapiens, UniProt Q01959); settings: package insert; cited from earlier work
Chain of DAT (Q01959 whole entry, species assumed): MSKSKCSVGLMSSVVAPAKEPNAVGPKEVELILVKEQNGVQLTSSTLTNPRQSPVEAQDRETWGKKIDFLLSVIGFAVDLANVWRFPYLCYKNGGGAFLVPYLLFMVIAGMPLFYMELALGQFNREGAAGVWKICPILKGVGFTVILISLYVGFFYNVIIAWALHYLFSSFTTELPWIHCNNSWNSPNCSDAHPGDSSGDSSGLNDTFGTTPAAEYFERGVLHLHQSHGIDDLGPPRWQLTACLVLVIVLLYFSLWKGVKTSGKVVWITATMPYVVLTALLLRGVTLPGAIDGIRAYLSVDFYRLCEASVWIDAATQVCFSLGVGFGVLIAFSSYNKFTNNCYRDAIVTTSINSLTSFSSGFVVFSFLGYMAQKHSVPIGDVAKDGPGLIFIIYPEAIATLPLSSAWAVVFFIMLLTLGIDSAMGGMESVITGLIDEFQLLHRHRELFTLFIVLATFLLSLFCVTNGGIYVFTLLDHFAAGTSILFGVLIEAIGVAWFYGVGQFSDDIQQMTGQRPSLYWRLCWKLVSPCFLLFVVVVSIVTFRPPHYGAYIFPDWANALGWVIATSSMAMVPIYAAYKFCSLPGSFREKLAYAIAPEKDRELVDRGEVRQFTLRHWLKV

T1 sequence (Q01959 whole entry): as the sequence (Q01959 whole entry, species assumed) above

SMILES | time after administration at which stable binding occurs (DAT in the striatum [1]; after administration, scanning can begin) [min] | time at which captured energy (counts) stabilizes (DAT in the striatum [1]; during scan after administration) [min] | SPECT image availability after i.v. injection time (DAT in the striatum [1]; post i.v. injection) [min] | time of wash-out from DAT receptors in dopaminergic neurons (DAT in the striatum [1]; post i.v. injection) [min] | scan time over which sufficient data for an image are collected (DAT in the striatum [1]; scan starting 15 min after administration) [min] | safety of bolus injection formulation ([2]; dose of up to about 8 mCi to 10 mCi, total volume about 2.5 mL to about 5 mL) | effective dose ([2]; for 5 mCi of radiolabeled DaT2020) | half-life (DAT in the striatum [3]; 123I-labeled tracer) [h] | earliest start of scanning procedure after administration (DAT in the striatum [3]; after administration) | duration for which binding remains stable (DAT in the striatum [3]; after stable binding is reached 3 hr post-injection) [h] | time of wash-out from DAT receptors in dopaminergic neurons (DAT in the striatum [3]; post i.v. injection, comparator, 'or more') [min] | SPECT image availability after i.v. injection time (DAT in the striatum [3]; post i.v. injection, comparator) [min] | time after injection until binding to striatal DAT becomes stable (DAT in the striatum [3]) | time after injection until binding to striatal DAT becomes stable (DAT in the striatum [3]; listed as [^123I]-FP-CIT) [h] | fraction of tracer available for DAT transporter binding in the brain tissue (DAT in the striatum [3]; rest bound to transporters other than DAT, package insert) | DAT sites bound for every one SERT site (DAT)
COC(=O)C1C(c2ccc(F)cc2)CC2CCC1N2C/C=C/[123I] (stereo not drawn) [DaT2020, [^123I]-E-2β-carbomethoxy-3β-(4-fluorophenyl)-N-(3-iodo-E-allyl) nortropane] | 15 | 14 to 18 | 45 to 60 | ≤ 60 | 30 | safe | approximately 4.3 mSv | – | – | – | – | – | – | – | – | –
COC(=O)[C@H]1[C@@H](c2ccc(I)cc2)C[C@@H]2CC[C@H]1N2CCCF [DaTSCAN, N-ω-fluoropropyl-2β-carbomethoxy-3β-(4-iodophenyl) nortropane] | – | – | – | – | – | – | – | 13.2 | at least 180 min | 3 | 180 to 240 | 180 to 240 | 3 h and 3 to 6 h | 3 | about 7% | two to three

Source: patent publication US20230001026A1, “PHAR[…] UNITS AND METHODS FOR CONCOMITANT ADMINISTRATION OF RADIOTRACERS” (LikeMinds, Inc., priority 2019, published 2023)
